Measurements reported in publication PMC10386886, “First-in-class multifunctional TYMS nonclassical antifolate inhibitor with potent in vivo activity that prolongs survival” (JCI Insight, 2023).
Like-named read-outs stand apart in the source and are kept apart here.

How the values were obtained:
purified human TYMS [1] = molecular target: T1, purified human TYMS (Homo sapiens, UniProt P04818); test: Tritium-based TYMS catalytic activity assay; type: biochemical; details: for TS activity, comparison at decreasing drug concentrations: Figure 6C; for TS activity (conversion of dUMP) in the presence of drug: drug 250 μM, 10 μg/mL TS protein, Figure 1B
T1 construct: 6xHis (N); made in house; host or cells: E. coli BL21 (DE3), vector pQE80L-hTYMS
T1 sequence (P04818 whole entry): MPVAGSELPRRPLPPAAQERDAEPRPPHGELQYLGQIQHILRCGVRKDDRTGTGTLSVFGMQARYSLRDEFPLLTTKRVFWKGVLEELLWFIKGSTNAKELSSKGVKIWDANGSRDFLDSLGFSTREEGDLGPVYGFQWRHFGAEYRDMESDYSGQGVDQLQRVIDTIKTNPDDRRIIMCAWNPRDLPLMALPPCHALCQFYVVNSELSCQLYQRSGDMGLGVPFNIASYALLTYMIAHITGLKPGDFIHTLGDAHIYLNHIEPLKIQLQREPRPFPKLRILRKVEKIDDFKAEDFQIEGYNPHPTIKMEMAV
Description: To determine the inhibition of TYMS activity, we utilized a tritium-based TYMS catalytic assay (Figure 1A) to quantify the conversion of dUMP, which is proportional to TYMS activity ([33]). The assay was based on a previously published protocol ([33]) and modified to determine the amount of purified human TYMS (hTYMS) to be used in the conversion of dUMP to dTMP. […]
Tritium based TYMS catalytic activity assay
The catalytic activity of TYMS was determined by measuring the release of [3H] from [5-3H]dUMP (ViTrax, Cat # VT122) resulting from the conversion of dUMP to dTMP as previously described (2, 3).
The reaction conditions were optimized to determine the amount of TYMS protein needed to establish […]
reactions performed without TYMS or without the 5,10-methylene tetrahydrofolate (5,10-mTHF) cofactor (Supplemental Figure 2 and Supplemental methods). Reactions were performed in 50 mM KH2PO4 (Sigma Aldrich, Cat # P0662) at pH 7.2 using 2 µg of purified human TYMS. Reactions were performed in a final volume of 200 µL with 100 mM β-mercaptoethanol (Sigma Aldrich, Cat # M7522), 40 µM dUMP (Sigma Aldrich, Cat # D3876), 100 µM 5,10-mTHF, and the [5-3H]dUMP tracer (ViTrax, Cat # VT122) accounting for 0.06% of the final dUMP concentration in the reaction. The 5,10-mTHF used in the reaction was separately generated from tetrahydrofolic acid (Sigma Aldrich, Cat # T3125) by dissolving the solid in 10 mM KH2PO4 with 143 mM β-mercaptoethanol (1:100 from 14.3 M pure liquid), and 6.35 mM formaldehyde (Sigma Aldrich, Cat # 47608) to yield a 100 mM stock solution of 5,10- mTHF. Reactions were initiated by the addition of the dUMP substrate and 5,10-mTHF cofactor, then incubated at 37 °C for 30 minutes. […]
before the reaction was initiated by the addition of the dUMP substrate and 5,10-mTHF cofactor.
Reactions were terminated by the addition of 100 µL of ice-cold 20% trichloroacetic acid (Sigma Aldrich, Cat # T6399), then excess [5-3H]dUMP was removed by the addition of 200 µL of an albumin-coated activated charcoal solution. The albumin-coated activated charcoal solution was prepared by mixing 10 g of acid- washed activated dextran coated charcoal (Sigma Aldrich, Cat # C6241) with 2.5 g of bovine albumin (Sigma Aldrich, Cat # A1933) in 100 mL of H2O. The suspension was incubated at room temperature for 30 minutes and then centrifuged for 30 minutes at 10,000 x g. Then 150 µL of the supernatant was collected and added to 5 mL of ultima gold liquid scintillation cocktail (Perkin Elmer, Cat # 6013326, lot: 77-19085), and scintillation measurements were perform using a liquid scintillation counter (Beckman Coulter LS6500) to determine [3H]H2O levels in each sample. For all experiments, positive control reactions were performed with no drug representing 100% TYMS activity, and negative

DHFR = molecular target: T2, DHFR (Homo sapiens, UniProt P00374); test: Absorbance-based DHFR activity assay; type: biochemical
T2 construct: purchased Sigma D6566 (kit CS0340)
T2 sequence (P00374 1-187): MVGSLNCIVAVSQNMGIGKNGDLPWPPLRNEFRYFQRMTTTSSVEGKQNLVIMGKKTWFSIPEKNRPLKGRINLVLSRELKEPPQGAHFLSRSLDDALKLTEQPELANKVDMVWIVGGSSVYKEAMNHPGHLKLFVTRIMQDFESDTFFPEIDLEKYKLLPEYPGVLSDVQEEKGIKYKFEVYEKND
Description: DHFR assay kit (Sigma Aldrich, Cat # CS0340) as described by the manufacturer. 0.1-unit DHFR
analogues or control drugs, 6 μL NADPH Cat # N6505 solution and 5 μl of dihydrofolic acid (DHFR
substrate) (Sigma, Cat # D7006). The reaction was then read on the spectrophotometer at 340 nm at
22 °C every 15 seconds for 2.5 minutes.

purified human TYMS [2] = molecular target: T1, purified human TYMS; test: Competitive drug displacement assay (tritium TYMS assay); type: biochemical; details: for dUMP conversion with increasing 5,10-mTHF concentration / dUMP conversion with increasing dUMP concentration: TS preincubated with drug, Figure 7
Description: For these experiments the TYMS protein was first incubated with each drug, and the reaction was then initiated by addition of 5,10-mTHF and dUMP using different concentrations of either 5,10-mTHF or dUMP to change the substrate/drug ratio. If there was competition between one of the substrates and the drug for the same binding site, then increasing the substrate concentration would displace more of the prebound drug and shift the equilibrium toward the enzyme/substrate complex, thus allowing the conversion of dUMP to proceed (Figure 7A). […]
all components including 2 µg TYMS protein to show the range of the assay, the background signal, and the dependence on 5,10-mTHF (Supplemental Figure 2C). To determine the signal from the [5-3H]dUMP tracer used in each reaction the same amount of the dUMP substrate with the [5-3H]dUMP tracer accounting for 0.06% of the final dUMP concentration was added directly to 5 mL of ultima gold liquid scintillation cocktail (Supplemental Figure 2C).
All reactions were performed in biological duplicate and technical duplicate. Results were analyzed using GraphPad Prism 9.
Competitive drug displacement assay
The tritium based TYMS catalytic activity assay was modified to determine if TYMS inhibition from 19-S, 19-S5, and 19-S7 was the result of competitive binding with either the dUMP substrate or the 5,10-mTHF cofactor. The competitive drug displacement assay utilized the standard reaction conditions for the tritium-based TYMS catalytic activity assay including 40 µM dUMP (Sigma Aldrich, Cat # D3876) with the [5- 3H]dUMP tracer (ViTrax, VT122) accounting for 0.06% of the final dUMP concentration and 100 µM 5,10- methylene tetrahydrofolate (defined as 1x dUMP and 1x 5,10-mTHF). Concentrations of total dUMP and 5,10- mTHF were then changed relative to these 1x concentrations to concisely indicate the changes in either the substrate or cofactor concentration. The highest 5x concentration of 5,10 - […]
5x concentration of total dUMP was not limited by solubility, although increases were performed in the same increments as 5,10-mTHF for comparison and 0.06% of the [5-3H]dUMP tracer was maintained at all concentrations. The remaining components in each 200 µL reaction were consistent in all reactions and included 2 µg of purified human TYMS in 50 mM KH2PO4 (Sigma Aldrich, Cat # P0662) and 100 mM β- mercaptoethanol (Sigma Aldrich, Cat # M7522). Control antifolate inhibitor PEM (Sigma Aldrich, Cat # PHR1596) was performed for reference of a TYMS specific classical antifolate and to […]
Human TYMS and DHFR preparation
Human Thymidylate Synthase (hTYMS) and human Dihydrofolate Reductase (hDHFR) were both expressed in BL21 (DE3) E. coli cells, using a standard BL21 transformation protocol, with the expression vector pQE80L-hTYMS (gift from Maria Paola Costi, University of Modena and Reggio Emilio, Italy) and pET100/D- TOPO (Invitrogen, Cat # K10001), respectively. Both vectors contained an N-terminal 6x Histidine tag attached to either hTYMS or hDHFR. After bacterial transformation, cells

MIA PaCa-2 cells = test: MTS viability assay, MIA PaCa-2; type: cell-based; details: Homo sapiens, 72-hour drug treatment, Figure 6E, highest concentration 350 μM
Description: Cells were harvested after 72 hours, and cell pellets were stored at –80°C. […] After 72 hours, cell viability was assessed by reduction of MTS using Cell Titer 96 R Aqueous One Solution Cell Proliferation Assay Kit (Promega, catalog G8081), following manufacturer’s recommendations. […] was measured on a SpectraMax M3 (Molecular Devices). Data were plotted in GraphPad Prism 9 to determine GI50 concentration. Chemical synthesis details, including characterization of each compound, can be found in the Supplemental section associated with this publication.

Row | dUMP conversion with increasing 5,10-mTHF concentration (purified human TYMS [2]) | Structure (SMILES) | TS activity, comparison at decreasing drug concentrations (purified human TYMS [1]) | dUMP conversion with increasing dUMP concentration (purified human TYMS [2]) | TS activity (conversion of dUMP) in the presence of drug (purified human TYMS [1]) | further results
1 | increased the amount of dUMP conversion | CCc1nc(N)nc(N)c1-c1ccc(N(C)Cc2ccc(OC)cc2)c([N+](=O)[O-])c1 [Compound 19-S5] | greater TYMS inhibition than both MTX and PEM | the amount of dUMP conversion did not increase |  | TS activity, screen of 19-S series analogs (purified human TYMS [1]; 250 μM, Figure 6A): inhibited TYMS activity; DHFR activity, comparison at reduced drug concentrations (DHFR; Figure 6D): potent TYMS and DHFR inhibition; Mechanism of TYMS inhibition (purified human TYMS [2]): blocking the folate-binding site; GI50 (MIA PaCa-2 cells): 280 nM
2 |  | O=c1[nH]c(=O)n([C@H]2C[C@H](O)[C@@H](CO)O2)cc1F [FdUrd, 5-fluoro-2′-deoxyuridine] |  |  | reduced conversion of dUMP | 
3 |  | CCc1nc(N)nc(N)c1-c1ccc(NCCOCCOCCN)c([N+](=O)[O-])c1 [Compound 19-S10] |  |  |  | DHFR activity, screen of 19-S series analogs (DHFR; 1 μM, Figure 6B): exception
4 | increased the dUMP conversion | Nc1nc2[nH]cc(CCc3ccc(C(=O)N[C@@H](CCC(=O)O)C(=O)O)cc3)c2c(=O)[nH]1 [PEM, pemetrexed] | greater TYMS inhibition than the MTX antifolate | did not increase dUMP conversion |  | DHFR activity, comparison at reduced drug concentrations (DHFR): less effective against DHFR
5 |  | O=c1[nH]c(=O)n([C@@H]2O[C@H](CO)[C@@H](O)[C@H]2O)cc1F [FUrd, 5-fluorouridine] |  |  | inactive | 
